The record followed here is patent US5998654A, “Retinoic acid receptor antagonist compounds and methods” (Ligand Pharmaceuticals Incorporated, priority 1997, dated 1999).

One assay addresses T1, RARα (Homo sapiens, UniProt P10276).
T1 sequence (P10276 1-462): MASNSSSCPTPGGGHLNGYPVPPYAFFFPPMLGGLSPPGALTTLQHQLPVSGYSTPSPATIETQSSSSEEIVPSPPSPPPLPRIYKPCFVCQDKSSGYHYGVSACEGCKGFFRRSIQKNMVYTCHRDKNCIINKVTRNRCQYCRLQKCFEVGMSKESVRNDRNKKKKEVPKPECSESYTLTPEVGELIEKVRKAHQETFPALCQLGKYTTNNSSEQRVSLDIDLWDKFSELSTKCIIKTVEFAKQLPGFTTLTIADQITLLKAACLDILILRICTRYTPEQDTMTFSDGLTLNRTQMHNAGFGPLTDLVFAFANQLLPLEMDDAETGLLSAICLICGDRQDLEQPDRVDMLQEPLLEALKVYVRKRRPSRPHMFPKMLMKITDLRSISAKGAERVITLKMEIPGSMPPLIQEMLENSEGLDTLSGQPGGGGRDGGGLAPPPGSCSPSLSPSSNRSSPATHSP
The assay can be described thus: co-transfection assay, antagonist activity on RARα. The class given is cell-based. Further details: expressed in transfected cells; host or cells: CV-1 cells (African green monkey kidney). As to conditions: CV-1 cells, in presence of known RAR agonist TTNPB; for IC50: read-out: IC50 antagonist potency, RARα. The text has this:
(§1) This assay is described in further detail in U.S. Pat. Nos. 4,981,784 and 5,071,773, the disclosures of which are incorporated herein by reference.
(§2) In the co-transfection assay, a cloned cDNA for an IR (e.g., human RARα:, RARβ, RXRγ) under the control of a constitutive promoter (e.g., the SV 40 promoter) is introduced by transfection (a procedure to induce cells to take up foreign genes) into a background cell substantially devoid of endogenous IRs. This introduced gene directs the recipient cells to make the IR protein of interest. A second gene is also introduced (co-transfected) into the same cells in conjunction with the IR gene. This second gene, comprising the cDNA for a reporter protein, such as firefly luciferase (LUC), is controlled by an appropriate hormone responsive promoter containing a hormone response element (HRE). This reporter plasmid functions as a reporter for the transcription-modulating activity of the target IR. Thus, the reporter acts as a surrogate for the products (mRNA then protein) normally expressed by a gene under control of the target receptor and its native hormone.
(§3) The co-transfection assay can detect small molecule agonists or antagonists of target IRs. Exposing the transfected cells to an agonist ligand compound increases reporter activity in the transfected cells. This activity can be conveniently measured, e.g., by increasing luciferase production, which reflects compound-dependent, IR-mediated increases in reporter transcription. To detect antagonists, the co-transfection assay is carried out in the presence of a constant concentration of an agonist to the target IR (e.g., all-trans retinoic acid for RARα) known to induce a defined reporter signal. Increasing concentrations of a suspected antagonist will decrease the reporter signal (e.g., luciferase production). The co-transfection assay is therefore useful to detect both agonists and antagonists of specific IRs. Furthermore, it determines not only whether a compound interacts with a particular IR, but whether this interaction mimics (agonizes) or blocks (antagonizes) the effects of the native regulatory molecules on target gene expression, as well as the specificity and strength of this interaction.
(§4) CV-1 cells (African green monkey kidney fibroblasts) were cultured in the presence of Dulbecco's Modified Eagle Medium (DMEM) supplemented with 10% charcoal resin-stripped fetal bovine serum then transferred to 96-well microtiter plates one day prior to transfection.
(§5) To determine RAR and/or RXR agonist activity of the compounds of the present invention, the CV-1 cells were transiently transfected by calcium phosphate coprecipitation according to the procedure of Berger et al., 41 J. Steroid Biochem. Mol. Biol., 733 (1992) with the following receptor expressing plasmids: pRShRARα: Giguere et al., 330 Nature, 624 (1987); pRShRARβ and pRShRARγ, Ishikawa et al., 4 Mol. Endocrin., 837 (1990); pRShRXRα, Mangelsdorf et al., 345 Nature, 224 (1990); and pRSmRXRβ and pRSmRXRγ, Mangelsdorf et al., 6 Genes & Devel., 329 (1992), the disclosures of which are herein incorporated by reference. Each of these receptor expressing plasmids was co-transfected at a concentration of 5 ng/well, along with a basal reporter plasmid at 100 ng/well, the internal control plasmid pRS-β-Gal at 50 ng/well and filler DNA, pGEM at 45 ng/well.
(§6) The basal reporter plasmid D-MTV-LUC (Hollenberg and Evans, 55 Cell, 899 (1988), the disclosure of which is herein incorporated by reference) containing two copies of the TRE-palindromic response element described in Umesono et al., 336 Nature, 262 (1988), the disclosure of which is herein incorporated by reference, was used in transfections for the RARs, and the reporter plasmid CRBPIIFKLUC, which contains an RXRE (retinoid X receptor response element, as described in Mangelsdorf et al., 66 Cell, 555 (1991), the disclosure of which is herein incorporated by reference), was used in transfections for the RXRs.

The next assay deals with T2, RARβ (Homo sapiens, UniProt P10826).
T2 sequence (P10826 1-448 isoform P10826-2): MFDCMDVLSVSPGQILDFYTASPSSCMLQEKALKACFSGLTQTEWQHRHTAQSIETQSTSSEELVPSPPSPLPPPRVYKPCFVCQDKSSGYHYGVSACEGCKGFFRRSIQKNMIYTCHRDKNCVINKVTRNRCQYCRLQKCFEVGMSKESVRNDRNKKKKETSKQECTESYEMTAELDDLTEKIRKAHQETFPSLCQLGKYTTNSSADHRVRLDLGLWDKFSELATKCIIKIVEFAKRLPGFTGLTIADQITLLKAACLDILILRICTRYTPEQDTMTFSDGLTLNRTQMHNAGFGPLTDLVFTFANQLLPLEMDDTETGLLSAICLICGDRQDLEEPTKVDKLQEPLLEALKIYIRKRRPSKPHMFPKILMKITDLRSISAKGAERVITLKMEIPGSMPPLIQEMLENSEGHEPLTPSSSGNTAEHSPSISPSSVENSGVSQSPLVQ
The assay can be described thus: co-transfection assay, antagonist activity on RARβ. On the set-up: expressed in transfected cells; host or cells: CV-1 cells (African green monkey kidney). The note with it: CV-1 cells, in presence of known RAR agonist TTNPB; for IC50: read-out: IC50 antagonist potency, RARβ. The class given is cell-based.
From the text: as §1, §2, §3, §4, §5, §6

The structures appear in SMILES notation.

A word on the IC50: it is the concentration that inhibits the measured activity by half. For the compound `CCCCOc1c(C(C)(C)C)cc(/C(C)=C/C=C/C(C)=C/C(=O)O)cc1C(C)(C)C` [Compound 7, 2E, 4E, 6E-[7-(3,5-Di-t-butyl-4-n-butoxyphenyl)-3-methyl]-octa-2,4,6-trienoic acid], on RARα, the “efficacy of antagonist, % of maximal inhibition, RARα (in parentheses after IC50)” value is recorded as 90% and the IC50 is 4 nM. Also, on RARβ, the “efficacy of antagonist, % of maximal inhibition, RARβ (in parentheses after IC50)” value was found to be 85% and the half-maximal inhibitory concentration (IC50) came to 4 nM.
As to `CCCOc1c(C(C)(C)C)cc(/C(C)=C/C=C/C(C)=C/C(=O)O)cc1C(C)(C)C` [Compound 8, 2E, 4E, 6E-[7-(3,5-Di-t-butyl-4-n-propoxyphenyl)-3-methyl]-octa-2,4,6-trienoic acid], on RARα, the “efficacy of antagonist, % of maximal inhibition, RARα (in parentheses after IC50)” value is 90% and the IC50 was found to be 2 nM. For the same compound, at RARβ, the “efficacy of antagonist, % of maximal inhibition, RARβ (in parentheses after IC50)” value was 85% and the IC50 was 1 nM.
As to `CCCCCOc1c(C(C)(C)C)cc(/C(C)=C/C=C/C(C)=C/C(=O)O)cc1C(C)(C)C` [Compound 9, 2E, 4E, 6E-[7-(3,5-Di-t-butyl-4-n-pentoxyphenyl)-3-methyl]-octa-2,4,6-trienoic acid], at RARα, the “efficacy of antagonist, % of maximal inhibition, RARα (in parentheses after IC50)” value was 91% and the IC50 is 5 nM. Moreover, on RARβ, the “efficacy of antagonist, % of maximal inhibition, RARβ (in parentheses after IC50)” value was 86% and the IC50 came out at 17 nM.
The corresponding values for `C=C(c1ccccc1)c1cc(/C(C)=C/C=C/C(C)=C/C(=O)O)cc(C(C)(C)C)c1` [Compound 17, (2E,4E,6E)-7-[3-t-butyl-5-(1-phenyl-vinyl)-phenyl]-3-methyl-octa-2,4,6-trienoic acid] are 98%, 2 nM, 90% and 5 nM.
